Reference: patent US20140045823A1 (Neurocrine Biosciences, Inc., priority 2012, published 2014)

What follows are compounds tested against T1, human GPR119 (Homo sapiens, UniProt Q8TDV5) (assay: AlphaScreen cAMP assay in MIN6 cells stably transfected with human GPR119). Conditions: Min-6/hGPR119 cells, 45 min at room temperature.
T1 construct: expression vector for human GPR119 cDNA (Acc. No. NP_848566); expressed in transfected cells; Min-6/hGPR119
T1 sequence (Q8TDV5 1-335): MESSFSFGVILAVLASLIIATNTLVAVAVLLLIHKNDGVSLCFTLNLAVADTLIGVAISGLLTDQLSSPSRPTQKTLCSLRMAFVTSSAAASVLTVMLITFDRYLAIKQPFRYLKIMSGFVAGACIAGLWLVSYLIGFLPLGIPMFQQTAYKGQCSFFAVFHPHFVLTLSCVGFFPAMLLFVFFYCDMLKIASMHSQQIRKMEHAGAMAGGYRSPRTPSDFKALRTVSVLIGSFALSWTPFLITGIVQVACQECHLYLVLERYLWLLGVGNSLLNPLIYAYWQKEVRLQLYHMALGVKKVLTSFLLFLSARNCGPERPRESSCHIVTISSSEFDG
Assay type: cell-based
Procedure, shortened: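 MIN6 cells stably expressing human GPR119, seeded 10000/well and grown 24 h, were exposed to compound in pH 7.4 buffer with 0.5 mM IBMX, 0.1% BSA and 1% DMSO for 45 min at room temperature. Intracellular cAMP then measured by AlphaScreen.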

| EC50 [nM] | SMILES |
| --- | --- |
| 64 | Cc1cnc(CNC(=O)c2ccc(-c3ncc(C(=O)N(C4CC4)C4CCN(C(=O)OC(C)(C)C)CC4)cn3)cc2F)s1 [Example 111, 4-[Cyclopropyl-(2-{3-fluoro-4-[(5-methyl-thiazol-2-ylmethyl)-carbamoyl]-phenyl}-pyrimidine-5-carbonyl)-amino]-piperidine-1-carboxylic acid tert-butyl ester] |
| 211 | CCc1nccn1-c1ncc(C(=O)N(C2CC2)C2CCN(C(=O)OC(C)C)CC2)cn1 [Example 52, 4-{Cyclopropyl-[2-(2-ethyl-imidazol-1-yl)-pyrimidine-5-carbonyl]-amino}-piperidine-1-carboxylic acid isopropyl ester] |
| 42 | CC(C)(C)OC(=O)N1CCC(N(C(=O)c2coc(-c3ccc(C#N)c(F)c3)n2)C2CC2)CC1 [Example 24, 4-{[2-(4-Cyano-3-fluoro-phenyl)-oxazole-4-carbonyl]-cyclopropyl-amino}-piperidine-1-carboxylic acid tert-butyl ester] |
| 179 | COC1CN(C(=O)c2ccc(-c3ncc(C(=O)N(C4CC4)C4CCN(C(=O)OC(C)(C)C)CC4)cn3)cc2)C1 [Example 226, 4-(Cyclopropyl-{2-[4-(3-methoxy-azetidine-1-carbonyl)-phenyl]-pyrimidine-5-carbonyl}-amino)-piperidine-1-carboxylic acid tert-butyl ester] |
| 748 | Cc1cc(C(=O)N(C2CC2)C2CCN(C(=O)OC(C)(C)C)CC2)cnc1-c1cnco1 [Example 10, 4-[Cyclopropyl-(5-methyl-6-oxazol-5-yl-pyridine-3-carbonyl)-amino]-piperidine-1-carboxylic acid tert-butyl ester] |
| 1120 | CC(C)(C)OC(=O)N1CCC(N(C(=O)c2ncc(-c3ccc(C#N)nc3)cn2)C2CC2)CC1 [Example 69, 4-{[5-(6-Cyano-pyridin-3-yl)-pyrimidine-2-carbonyl]-cyclopropyl-amino}-piperidine-1-carboxylic acid tert-butyl ester] |
| 170 | COc1ccc(NC(=O)c2ccc(-c3ncc(C(=O)N(C4CC4)C4CCN(C(=O)OC(C)(C)C)CC4)cn3)cc2)cn1 [Example 174, 4-(Cyclopropyl-{2-[4-(6-methoxy-pyridin-3-ylcarbamoyl)-phenyl]-pyrimidine-5-carbonyl}-amino)-piperidine-1-carboxylic acid tert-butyl ester] |
| 210 | CC(C)(C)OC(=O)N1CCC(N(C(=O)c2nc(-c3ccc(Br)cc3F)no2)C2CC2)CC1 [Example 22, 4-{[3-(4-Bromo-2-fluoro-phenyl)-[1,2,4]oxadiazole-5-carbonyl]-cyclopropyl-amino}-piperidine-1-carboxylic acid tert-butyl ester] |
| 263 | CN(Cc1ccncc1)C(=O)c1ccc(-c2ncc(C(=O)N(C3CC3)C3CCN(C(=O)OC(C)(C)C)CC3)cn2)cc1F [Example 139, 4-(Cyclopropyl-{2-[3-fluoro-4-(methyl-pyridin-4-ylmethyl-carbamoyl)-phenyl]-pyrimidine-5-carbonyl}-amino)-piperidine-1-carboxylic acid tert-butyl ester] |
| 2 | CC(C)(C)OC(=O)N1CCC(N(C(=O)c2cc(-c3ccc(C#N)cc3F)no2)C2CC2)CC1 [Example 42, 4-{[3-(4-Cyano-2-fluoro-phenyl)-isoxazole-5-carbonyl]-cyclopropyl-amino}-piperidine-1-carboxylic acid tert-butyl ester] |
| 420 | CC(C)(C)OC(=O)N1CCC(N(C(=O)c2cnc(-c3ccc(CC(=O)NCCOC(F)(F)F)cc3)nc2)C2CC2)CC1 [Example 191, 4-[Cyclopropyl-(2-{4-[(2-trifluoromethoxy-ethylcarbamoyl)-methyl]-phenyl}-pyrimidine-5-carbonyl)-amino]-piperidine-1-carboxylic acid tert-butyl ester] |
| 18 | CC(C)(C)OC(=O)N1CCC(N(C(=O)c2coc(-c3ccc(C#N)cc3F)n2)C2CC2)CC1 [Example 23, 4-{[2-(4-Cyano-2-fluoro-phenyl)-oxazole-4-carbonyl]-cyclopropyl-amino}-piperidine-1-carboxylic acid tert-butyl ester] |
